Data reported in US7989495B2, “Compositions and methods for inhibiting NF-κB mediated tumorigenicity and adhesion dependent survival of cancer cells” (University of Utah Research Foundation, priority 2002, dated 2011).
Entries after “also recorded” stand apart in the source; their conditions may differ.

Assays:
[1] = tested on: TNFα-induced NF-κB activation; conditions: Pierce et al., 1997; cited from earlier work
JNK/SAPK and p38 = conditions: Pierce et al., 1997; cited from earlier work
[2] = tested on: transiently suspended DLD-1 cells; assay: Apoptosis (annexin V) of transiently suspended cells allowed to readhere; type: cell-based
Protocol: (§1) The transiently suspended cells were lysed and allowed to bind to DNA oligonucleotides, containing the NF-κB consensus binding site, that were immobilized to 96-well plates. NF-κB protein bound to the oligonucleotides was detected by an antibody to the p65 subunit that only recognized p65 that is bound to DNA. The positive control was HeLa cells that were stimulated with TNFα A control was performed using excess free NF-κB oligonucleotides (Competitor). […] NF-κB binding activity was determined by the TransAM assay as in FIG. 5A. […] The data shown represent typical results of three separate experiments. […] An immunoblot for COX-2 was performed.
(§2) Single cell suspensions were plated at 100,000 cells per well in 24-well plates in media containing DMSO, BAY 11-7082, BAY 11-7085, or MG-132 for 8-24 hours in an incubator. Alternatively, DMSO, BAY 11-7082, BAY 11-7085, or MG-132 were added to cells that were confluent and adherent for several days. The nonadherent cells were aspirated off with the media and spun for 3 minutes at 2,000 rpm in 15 ml polypropylene tubes. The adherent cells were washed twice with PBS, dispersed in trypsin, and spun down for 3 minutes at 2,000 rpm in 15 ml polypropylene tubes. The nonadherent and adherent cells were resuspended in 1× binding buffer (10 mM HEPES/NaOH, pH 7.4, 140 mM NaCl, and 2.5 mM CaCl2) to a final concentration of 10^6 cells/ml. 100 μl of the cell solution were transferred to a 5 ml culture tube and incubated with 5 μl of annexin V-FITC-conjugated monoclonal antibody (Pharmingen) and 10 μl of propidium iodide (from a 50 μg/ml stock solution made in PBS) in the dark at 25° C. for 15 minutes. 400 μl of binding buffer was added to each tube and the cells were analyzed by flow cytometry immediately. The percent of apoptosis was determined as the percent of annexin V-positive, propidium iodide-negative cells of the total cells counted.
Since trypsin can activate protease-activated receptor-2 in colon cancer cell lines, which then results in increased cell proliferation, (Darmoul et al., 2001) NF-κB activation was determined in adherent and confluent DLD-1, HCT-116, Caco-2 and HT-29 cells that were removed from plastic dishes by trypsin or scraping. […] To determine whether the transient activation of NF-κB caused by cell readhesion would render all of the colon cancer cells tested more susceptible to BAY 11-7085-induced apoptosis, DLD-1, HCT-116, Caco-2 and HT-29 colon cancer cell lines were transiently suspended, treated with BAY 11-7085 and allowed to readhere.

[3] = tested on: transiently suspended HT-29 cells; assay: as above; type: cell-based
Protocol: HT-29 cells that were either transiently suspended with trypsin-EDTA or adherent for three days, were treated at time zero with DMSO or 10-100 μM BAY 11-7085. The percent of apoptotic cells was determined using the annexin V flow cytometry assay and graphed versus the dose of BAY 11-7085. […] The cells were fixed and immunostained with an NF-κB p65 subunit monoclonal antibody.
as §1
The percentage of apoptotic cells was determined using the annexin V assay. The data points represent the averages of three experiments; bars, ±SE. E. DLD-1 and F. HT-29 cells were transduced with an adenovirus containing the IκB super-repressor construct. After 3 days, the cells were transiently suspended and allowed to readhere in the presence of subapoptotic concentrations of BAY 11-7085 or DMSO (vehicle) for 8 h. The data are expressed as fractions of cells surviving compared with the controls (no adenovirus) and were quantitatively determined by staining the remaining adherent cells with crystal violet.
as §2
Various concentrations of BAY 11-7085 were added to HT-29 cells that were transiently suspended in trypsin-PBS for approximately 15 minutes before replating. The transiently suspended cells were quickly allowed to readhere in order to prevent anoikis. Alternatively, BAY 11-7085 was added to adherent HT-29 cell monolayers.

arthritis = conditions: Pierce et al., 1997; cited from earlier work
HT-29 xenografts = assay: Subcutaneous colon cancer xenograft in athymic mice; type: in vivo; conditions: for tumor volumes, treatment group compared with control group: HT-29 subcutaneous tumors, 1 mg/kg twice weekly for 28 days, vs DMSO
Protocol: DLD-1, HCT-116, and HT-29 cells were cultured for 6 days in soft agar in the presence of DMSO (control), 10 μM BAY 11-7082, or 10 μM BAY 11-7085. The data points represent the means of colony counts per field (20×) performed in 5 different regions of the culture dishes. The data shown represent a typical result of two separate experiments. FIGS. 2B,C, show athymic mice received subcutaneous injections of HT-29 (B) or HCT-116 (C) cells, followed by […] of BAY 11-7085 (dark bars) or DMSO (white bars) intraperitoneally twice weekly. The bars represent the 25-75% ranges of the tumor volumes and the horizontal lines in the bars are the medians. Using the Kruskal-Wallace statistical test to compare the median tumor volumes between BAY 11-7085 and DMSO yielded a p-value of 0.005 for HT-29 cells but >0.05 for HCT-116 cells.
HT-29 and HCT-116 cells were harvested in 0.25% trypsin-PBS-EDTA, washed once in media and PBS, and resuspended in PBS at 1 million cells per 200 μL. One million cells were injected either subcutaneously in the backs or intraperitoneally in 5 week old female nu/nu athymic mice (Charles River Labs). For the mice with subcutaneous tumors, the tumors were allowed to establish themselves for 10 days after which they were randomized to BAY 11-7085 or DMSO. For the mice with intraperitoneal tumors, the mice received DMSO or BAY 11-7085 (5 mg/kg) 24 hours before the cancer cells were injected intrapentoneally. All mice received BAY 11-7085 (5 mg/kg) or an equal volume of DMSO (˜200 μL) twice weekly for 21-32 days. Subcutaneous tumor sizes were determined by measuring the length and width with calipers. These studies were approved by the U. of Utah Institutional Review Board and Institutional Animal Care and Use Committee and performed in the Animal Resource Center. Mice were euthanized when they experienced a greater than 10% loss in body weight or if they appeared ill. Post-mortem examinations included sectioning of kidney, lung, and liver tissues which were stained with hematoxylin and eosin followed by examination for tissue toxicity/damage by an experienced mouse pathologist (E.J.E.) who was blinded to therapy.
(Wang et al., 1999) However, BAY 11-7082 or BAY 11-7085 alone inhibit colon cancer xenograft growth in athymic mice. HC-116, and HT-29 cell lines were used to generate subcutaneous tumors in athymic female mice. The mice were subsequently randomized to be treated with vehicle (DMSO) alone or BAY 11-7085 1 mg/kg twice weekly for 28 days.

SMILES: Cc1ccc(S(=O)(=O)/C=C/C#N)cc1 [BAY 11-7082, (2E)-3-(tolysulfonyl)-2-propenenitrile]
- effect on TNFα-induced NF-κB activation [1]: inhibit
- effect on JNK/SAPK and p38 (JNK/SAPK and p38): activate JNK/SAPK and p38
- share of transiently suspended, readhering cells that became apoptotic [2]: vast majority
- share of transiently suspended, readhering cells that became apoptotic ([3]; HT-29): vast majority
- effect on NF-κB and arthritis in rodent models (arthritis): inhibit NF-κB and arthritis in rodent models
- tumor volumes, treatment group compared with control group (HT-29 xenografts): reduce tumor volumes

SMILES: CC(C)(C)c1ccc(S(=O)(=O)/C=C/C#N)cc1 [BAY 11-7085, (2E)-3-[4-(tertiarybutylphenyl)sulfonyl]-2-propenenitrile]
- effect on TNFα-induced NF-κB activation [1]: inhibit
- effect on JNK/SAPK and p38 (JNK/SAPK and p38): activate JNK/SAPK and p38
- in vitro apoptotic threshold during readhesion [2]: > 20 µM
- share of transiently suspended, readhering cells that became apoptotic [2]: vast majority
- BAY 11-7085-induced apoptosis during readhesion ([2]; transiently suspended, treated, allowed to readhere 8 hours): showed the same propensity for BAY 11-7085-induced apoptosis
- in vitro apoptotic threshold during readhesion ([3]; HT-29): > 20 µM
- share of transiently suspended, readhering cells that became apoptotic ([3]; HT-29): vast majority
- BAY 11-7085-induced apoptosis during readhesion ([3]; HT-29, transiently suspended, treated, allowed to readhere 8 hours): showed the same propensity for BAY 11-7085-induced apoptosis
- apoptosis of transiently suspended cells ([3]; HT-29 suspended in trypsin about 15 minutes then replated, 10-100 μM): caused a significant increase in apoptosis
- effect on NF-κB and arthritis in rodent models (arthritis): inhibit NF-κB and arthritis in rodent models
- p-value, Kruskal-Wallace test of median tumor volumes vs DMSO (HT-29 xenografts; HT-29, intraperitoneally twice weekly): 0.005
- tumor volumes, treatment group compared with control group (HT-29 xenografts; 1 mg/kg): statistically significant overall reduction in the tumor volumes; also recorded: reduce tumor volumes
